Patent US20220073557A1, “FLUORINATED BILE ACIDS” (NZP UK LIMITED, priority 2018, published 2022)
Where two headings read alike, the source gives them in different places.

Key:
[1] = test system: sporadic PD patient fibroblast lines; test: Seahorse assay (oxygen consumption, extracellular acidification rate) in sPD fibroblasts; assay type: cell-based, human
Method: Fibroblasts are plated into Seahorse 24 well plates with 50,000 cells per well. Cells are left to attach for 2 days. Media is changed to Seahorse DMEM media with glucose and sodium pyruvate and left to equilibrate at 37 degrees normal air CO2 for 1 hour. The plate is entered into the Seahorse machine and run on a program of mix (2 minutes), wait (3 minutes) and measure (3 minutes). After three measurements of basal respiration and ECAR; 0.5 μM oligomycin is injected after which another three measurements are taken; then 0.5 μM of FCCP is injected and three measurements taken and finally 1 μM rotenone is injected and three measurements taken. After all measurements are complete, cells are stained with 10 μM Hoescht and imaged using the InCell to count the number of cells per well for normalisation. This classical ritochondrial stress test experimental protocol allows us to calculate the basal mitochondrial respiration, ATP linked respiration (the amount which is coupled to ATP generation), the maximal and spare respiratory capacity, the non-mitochondrial respiration rate and the extracellular acidification rate which is a proxy measure of glycosolysis.

[2] = test system: dopaminergic neurons derived from sPD patients (iNeurons); test: Mitochondrial function and neuronal morphology measurements in iNeurons from sPD patients; assay type: cell-based, human; conditions: for EC50: Homo sapiens, Neuron
Method: Fibroblasts were cultured in DMEM (Invitrogen) and routinely subcultured every 3-5 days using trypsin to dissociate them.
(§1) Briefly, iNPCs are plated in a 6-well plate and cultured for 2 days in DMEM/F-12 medium with Glutamax™ supplemented with 1% NEAA, 2% B27 (Gibco) and 2.5 μM of DAPT. On day 3, DAPT is removed and the medium is supplemented with 1 μM smoothened agonist (SAG) and FGF8 (75 ng/ml) for additional 10 days. Neurons are replated at this stage. Subsequently SAG and FGF8 are withdrawn and replaced with BDNF (30 ng/ml), GDNF (30 ng/ml), TGF-b3 […] and dcAMP (2 mM, Sigma) for 15 days.
Cells are plated in 96 well plates; for live imaging cells are incubated for one hour at 37 degree with 80 nM tetramethlyrhodamine (TMRM), 1 μM LysoTracker® Green (Invitrogen) and Hoechst Stain solution (Sigma) at 1 μM before imaging using Opera Phenix™. Cellular ATP measurements are undertaken using ATPlite kit (Perkin Elmer) as per manufacturer's instructions. Mitochondrial reactive oxygen species generation was assessed using mitochondrial NpFR2 (probe; a kind gift from Dr Liz New, University of Sydney, Australia) at 20 μM and Hoechst stain solution at 1 μM for 30 mins at 37° C., then the dyes are removed and cells images using Opera Phenix™. Images generated from the live imaging experiments were analysed using Harmony® (Perkin Elmer software). We developed protocols in order to segment nucleus, cell boundary and processes, mitochondria, lysosomes, autophagosomes. We only analysed the z projection images collected from the z stacks.

[3] = test system: dopaminergic neurons derived from sPD patients (iNeurons); test: Activated caspase 3 immunofluorescence staining in iNeurons; assay type: cell-based, human; conditions: untreated sPD 162
Method: as §1
Cells are plated into 96 well plates and fixed using 4% paraformaldehyde for 30 minutes. After PBS washes cells are permeabilised using 0.1% Triton™ X-100 for 10 minutes and blocked using 5% goat serum for 1 hour. Cells are incubated with primary antibodies tyrosine hydroxylase (St John's Laboratory); DAT (Abcam); Tuj (Millipore); Tom20 (BD Biosciences); activated caspase 3 (Cell Signaling); alpha synuclein (Cell Signaling); phosphorylated alpha synuclein (Millipore) at 4° C. for 16 hours. Cells are washed using PBS-Tween® and incubated with Alexa Fluor™-conjugated secondary antibodies 488 and 568 (Invitrogen) and Hoescht (Sigma) 1 μM prior to imaging. Imaging was performed using the Opera Phenix™ high content imaging system (Perkin Elmer).

[4] = test system: dopaminergic neurons derived from sPD patients (iNeurons); test: Dopamine ELISA in iNeurons; assay type: cell-based, human; conditions: untreated sPD 0
Method: as §1
Dopamine ELISA is performed using Dopamine research ELISA kit (Labor Diagnostika Nord GmbH&Co. KG) as per manufacturers instructions. Dopamine release is obtained incubating the cells at 37° C. using three different conditions at the same time per line. Medium is removed in all wells then the first well is incubated with HBSS with Ca^2+ and Mg^2+ (Gibco by Life Technologies) for 30 minutes, the second well is incubated in HBSS with Ca^2+ and Mg^2+ for 15 minutes and then 56 mM KCl (Fisher chemical) is added for another 15 minutes and the third well is incubated with HBSS without Ca^2+ and Mg^2+ (Gibco by Life Technologies) but with 2 mM EDTA for 15 min and then 56 mM KCl is added for another 15 minutes. Straight away media is collected in an eppendorf and cells are harvested using Accutase®, centrifuge at 400 g for 4 min and resuspended in 10 μl of PBS. […]

[5] = test system: mitochondrial respiratory chain complex I; test: Complex I assay, whole brain homogenate of dosed wild type mice; assay type: in vivo; conditions: wild type mouse whole brain homogenate, FIG. 3
Method: (§2) Ex vivo mice brain was homogenated in a buffer of 250 mM sucrose, 20 mM HEPES, 3 mM EDTA, pH 7.5 at 4° C. Homogenisation was carried out using a Dounce homogenizer, for cortex samples, and by repetitive passage through a 0.5 mm syringe for isolated striatum. Samples were then incubated with 30 μl of detergent from the AbCam colorimetric Complex I assay kit on ice for 20 minutes. Samples are then centrifuged at 13,000 rpm for 30 mins. Triplicate samples per condition were blocked using the kit blocking buffer on the AbCam colorimetric Complex I assay kit plate for 3 hours. Samples are then washed using the kit wash buffer 3 times before the addition of the kit assay buffer containing NADH and colorimetric dye. The assay plate is read on a plate reader in a kinetic assay programme reading 450 nm in a 30 second interval for 50 minutes.

[6] = test system: mitochondrial respiratory chain complex I; test: Complex I assay, left striatum brain homogenate of mice dosed with or without MPTP; assay type: in vivo, mouse; conditions: for Complex I activity with concurrent MPTP treatment: left striatum
Method: as §2

[7] = test system: sAD and familial AD (PSEN1 mutants) patient fibroblasts; test: Total cellular ATP levels in Alzheimer's disease patient fibroblasts; assay type: cell-based, human; conditions: 24 hour treatment at 100 nM, 21% restores to control levels
Method: Briefly, fibroblasts were cultured as and plated into white 384 well plates with 5000 cells per well in 50 μl of media volume. The plates are left overnight in an incubator to allow the fibroblasts to adhere to the plate surface. The following morning the Glucose based medium is replaced with 25 μl of Galactose based medium. The compounds are added to the plates using a ECHO 550 liquid handling system. The wells were dosed to provide an 8-point concentration range of 0.06 nM-300 nM of compound. After dosing the wells are topped up with a further 25 μl of Galactose based medium and then left in an incubator for 24 hours. Following this incubation the medium is removed from the plate and the wells are washed twice with sterile PBS. The wells are filled with 25 μl of Sterile PBS followed by 12.5 μl of Lysis solution from the ATPlite™ Luminescence ATP detection assay system (Perkin Elmer), including 16 cell free wells to use as blank controls. The plate is then placed on a rotary shaker for 5 mins at 700 rpm. Following the shaking 12.5 μl of ATP substrate solution (Perkin Elmer) is added to each well and a further 5 min of shaking. The plate is then placed in darkness for 10 minutes prior to reading. Using a PHERAStar® plate reader, luminescence intensity is recorded. Following the ATP assay the plates are immediately assayed for DNA content in a CyQUANT® assay.
Immediately following The ATP assay DNA content is assessed with the CyQUANT® NF Cell Proliferation Assay Kit (ThermoFisher). CyQUANT® buffer is prepared immediately before the assay and is comprised of 1 ul CyQUANT® dye per ml×1 HBSS solution. 12.5 ul of CyQUANT® buffer is added to each well. Plate left in incubator for 1 hour then read on a PHERAStar® Plate reader with excitation at 497 nm and emission at 520 nm.
Data shown in the Table 6 below is the mean increase in ATP levels after 24 hour treatment with compounds at 100 nM concentration.

Question: Which results are given for `C[C@H](CCC(=O)O)[C@H]1CC[C@H]2[C@@H]3[C@@H](O)C[C@@H]4C[C@@H](O)C(F)(F)C[C@]4(C)[C@H]3CC[C@]12C` [Compound 7, 2,2-difluoro-3β,7β-dihydroxy-5β-cholanic acid]?
Answer: Mitochondrial respiration (basal, maximal and ATP linked respiration; oxygen consumption) ([1]; 6 sPD fibroblast lines, dosed at EC90 (UDCA 100 nM, Compound 7 50 nM), FIG. 1A-1C): significantly improves all three mitochondrial parameters; Extracellular acidification rate (ECAR, proxy measure of glycolysis) ([1]; 6 sPD fibroblasts, FIG. 2): significantly improved; EC90 ([1]; Homo sapiens, Fibroblast, read-out: EC90 concentration): 50 nM; EC50 ([2]; read-out: ATP EC50 (nM)): 0.8 nM; EC50 ([2]; read-out: MMP EC50 (nM)): 0.52 nM; Neuronal morphology (elongation; % controls) ([2]; iNeurons from sPD patients, untreated sPD 48): 78 % controls; ATP normalisation (% of controls) ([2]; iNeurons from sPD patients, untreated sPD 50): 101 % of controls; MMP normalisation (% of controls) ([2]; iNeurons from sPD patients, untreated sPD 52): 100 % of controls; ROS (Normalisation) (% controls) ([2]; iNeurons from sPD patients, untreated sPD 115): 103 % controls; Activated caspase 3 levels [3]: 100 % of level in iNeurons from Controls; Dopamine level (increase in dopamine release) [4]: ~5% increase in; Increase in Complex I activity compared to untreated controls ([5]; 4 mg/kg dose): approximately 380%; Increase in Complex I activity compared to untreated controls ([5]; 12 mg/kg dose): approximately 800%; Increase in complex I activity over untreated controls ([6]; left striatum mouse brain homogenate, Vehicle+12 mg Compound 7 alone, FIG. 4): approximately 30%; Complex I activity with concurrent MPTP treatment ([6]; MPTP + 1 mg Compound 7, p<0.01 vs MPTP alone): retains complex I at normal levels; Complex I activity with concurrent MPTP treatment ([6]; MPTP + increased doses (4 mg, 12 mg) of Compound 7): appears to prevent any loss of complex I activity by MPTP; % increase over vehicle treated (mean increase in ATP levels) [7]: 24%
